Patent US7750003B2, “Compounds-943” (AstraZeneca AB, priority 2006, dated 2010)

Target: recombinant mTOR (FLAG-tagged, residues 1362-2549) (Homo sapiens, UniProt P42345)
Assay: In vitro mTOR kinase assay (Test (a), AlphaScreen)
Type: biochemical
Settings: ATP 20 μM, read-out: Test (a): IC50 versus mTOR kinase
Procedure, shortened: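 AlphaScreen read-out: a phospho-T389 p70 S6K antibody on acceptor beads captures the phosphorylated biotin-peptide on donor beads, with signal loss indicating inhibition.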

Sequence of recombinant mTOR (FLAG-tagged, residues 1362-2549) (P42345 1362-2549): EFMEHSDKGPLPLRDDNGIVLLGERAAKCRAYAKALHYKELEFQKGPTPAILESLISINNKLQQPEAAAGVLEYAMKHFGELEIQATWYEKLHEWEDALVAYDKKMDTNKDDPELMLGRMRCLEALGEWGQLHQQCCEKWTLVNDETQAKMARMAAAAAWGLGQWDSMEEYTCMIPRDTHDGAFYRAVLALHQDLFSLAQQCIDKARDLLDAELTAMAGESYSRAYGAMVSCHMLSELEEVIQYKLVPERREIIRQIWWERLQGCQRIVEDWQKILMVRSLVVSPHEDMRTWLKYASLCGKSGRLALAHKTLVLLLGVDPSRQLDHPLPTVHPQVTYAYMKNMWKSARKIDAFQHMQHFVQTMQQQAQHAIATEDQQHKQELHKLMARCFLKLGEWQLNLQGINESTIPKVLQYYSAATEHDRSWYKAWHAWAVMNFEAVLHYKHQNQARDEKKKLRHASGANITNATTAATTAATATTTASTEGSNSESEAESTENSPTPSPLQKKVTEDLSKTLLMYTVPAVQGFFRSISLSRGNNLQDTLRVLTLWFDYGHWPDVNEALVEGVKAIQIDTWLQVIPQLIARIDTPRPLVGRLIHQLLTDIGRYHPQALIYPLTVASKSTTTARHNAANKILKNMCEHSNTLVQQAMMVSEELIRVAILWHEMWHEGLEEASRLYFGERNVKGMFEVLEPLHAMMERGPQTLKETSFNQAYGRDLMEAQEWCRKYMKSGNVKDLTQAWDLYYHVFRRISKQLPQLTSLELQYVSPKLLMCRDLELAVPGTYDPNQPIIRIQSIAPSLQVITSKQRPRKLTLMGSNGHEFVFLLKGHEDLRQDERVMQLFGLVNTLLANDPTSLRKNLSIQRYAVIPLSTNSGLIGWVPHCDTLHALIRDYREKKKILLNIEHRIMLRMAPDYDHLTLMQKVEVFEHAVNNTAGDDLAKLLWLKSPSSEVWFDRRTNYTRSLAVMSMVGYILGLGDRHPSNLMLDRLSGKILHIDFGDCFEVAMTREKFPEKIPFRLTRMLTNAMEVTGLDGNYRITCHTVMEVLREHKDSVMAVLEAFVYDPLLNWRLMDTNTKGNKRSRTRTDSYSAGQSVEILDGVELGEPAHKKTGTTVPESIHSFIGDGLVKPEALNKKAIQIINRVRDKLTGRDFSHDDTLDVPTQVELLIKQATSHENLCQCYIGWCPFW

Compound | IC50
CC(C)S(=O)(=O)Cc1cc(N2CCOC[C@@H]2C)nc(-c2ccc(NC(=O)Nc3ccccc3)cc2)n1 [Example 9, 1-[4-[4-[(3S)-3-Methylmorpholin-4-yl]-6-(propan-2-ylsulfonylmethyl)pyrimidin-2-yl]phenyl]-3-phenyl-urea] | 590 nM
C[C@H]1COCCN1c1cc(CN2CCN(C)CC2)nc(-c2ccc(NC(=O)Nc3ccccc3)cc2)n1 [Example 30a, 1-[4-[4-[(3S)-3-methylmorpholin-4-yl]-6-[(4-methylpiperazin-1-yl)methyl]pyrimidin-2-yl]phenyl]-3-phenyl-urea] | 120 nM
CS(=O)(=O)Cc1cc(N2CCOCC2)nc(-c2ccc(NC(=O)Nc3ccccc3)cc2)n1 [Example 7h, 1-[4-[4-(methylsulfonylmethyl)-6-morpholin-4-yl-pyrimidin-2-yl]phenyl]-3-phenyl-urea] | 240 nM
CC(C)S(=O)(=O)Cc1cc(N2CCOC[C@@H]2C)nc(-c2ccc(NC(=O)NCCN(C)C)cc2)n1 [Example 20s, 3-(2-dimethylaminoethyl)-1-[4-[4-[(3S)-3-methylmorpholin-4-yl]-6-(propan-2-ylsulfonylmethyl)pyrimidin-2-yl]phenyl]urea] | 620 nM
C[C@H]1COCCN1c1cc(CS(=O)(=O)c2ccc(F)cc2)nc(-c2ccc(NC(=O)NC3CC3)cc2)n1 [Example 43b, 3-cyclopropyl-1-[4-[4-[(4-fluorophenyl)sulfonylmethyl]-6-[(3S)-3-methylmorpholin-4-yl]pyrimidin-2-yl]phenyl]urea] | 150 nM
CN(C)CCNC(=O)Nc1ccc(-c2nc(CS(C)(=O)=O)cc(N3CCOCC3)n2)cc1 [Example 45j, 1-(2-dimethylaminoethyl)-3-[4-[4-(methylsulfonylmethyl)-6-morpholin-4-yl-pyrimidin-2-yl]phenyl]urea] | 720 nM
Cc1ccc(NC(=O)Nc2ccc(-c3nc(CS(C)(=O)=O)cc(N4CCOCC4)n3)cc2)cc1 [Example 7a, 1-(4-methylphenyl)-3-[4-[4-(methylsulfonylmethyl)-6-morpholin-4-yl-pyrimidin-2-yl]phenyl]urea] | 280 nM
C[C@H]1COCCN1c1cc(C(C)(C)S(C)(=O)=O)nc(-c2ccc(NC(=O)Nc3ccccc3)cc2)n1 [Example 24w, 1-[4-[4-[(3S)-3-methylmorpholin-4-yl]-6-(2-methylsulfonylpropan-2-yl)pyrimidin-2-yl]phenyl]-3-phenyl-urea] | 34 nM
CN1CCC(NC(=O)Nc2ccc(-c3nc(N4CCOCC4)cc(C(C)(C)S(C)(=O)=O)n3)cc2)CC1 [Example 21d, 3-(1-methyl-4-piperidyl)-1-[4-[4-(2-methylsulfonylpropan-2-yl)-6-morpholin-4-yl-pyrimidin-2-yl]phenyl]urea] | 270 nM
Cc1cc(NC(=O)Nc2ccc(-c3nc(CS(C)(=O)=O)cc(N4CCOC[C@@H]4C)n3)cc2)no1 [Example 22d, 3-[4-[4-[(3S)-3-methylmorpholin-4-yl]-6-(methylsulfonylmethyl)pyrimidin-2-yl]phenyl]-1-(5-methyl-1,2-oxazol-3-yl)urea] | 4.8 nM
CC(=O)NCCS(=O)(=O)Cc1cc(N2CCOC[C@@H]2C)nc(-c2ccc(NC(=O)NC3CC3)cc2)n1 [Example 43j, N-[2-[[2-[4-(cyclopropylcarbamoylamino)phenyl]-6-[(3S)-3-methylmorpholin-4-yl]pyrimidin-4-yl]methylsulfonyl]ethyl]acetamide] | 1800 nM
CNC(=O)CS(=O)(=O)Cc1cc(N2CCOC[C@@H]2C)nc(-c2ccc(NC(=O)NC3CC3)cc2)n1 [Example 43a, 2-[[2-[4-(cyclopropylcarbamoylamino)phenyl]-6-[(3S)-3-methylmorpholin-4-yl]pyrimidin-4-yl]methylsulfonyl]-N-methyl-acetamide] | 87 nM
C[C@H]1COCCN1c1cc(CS(C)(=O)=O)nc(-c2ccc(NC(=O)N3CCOCC3)cc2)n1 [Example 35d, N-[4-[4-[(3S)-3-methylmorpholin-4-yl]-6-(methylsulfonylmethyl)pyrimidin-2-yl]phenyl]morpholine-4-carboxamide] | 3200 nM
CS(=O)(=O)Cc1cc(N2CCOCC2)nc(-c2ccc(NC(=O)NCCc3cccs3)cc2)n1 [Example 7q, 1-[4-[4-(methylsulfonylmethyl)-6-morpholin-4-yl-pyrimidin-2-yl]phenyl]-3-(2-thiophen-2-ylethyl)urea] | 1700 nM
CC(C)S(=O)(=O)Cc1cc(N2CCOC[C@@H]2C)nc(-c2ccc(NC(=O)NC3CC3)cc2)n1 [Example 20r, 3-cyclopropyl-1-[4-[4-[(3S)-3-methylmorpholin-4-yl]-6-(propan-2-ylsulfonylmethyl)pyrimidin-2-yl]phenyl]urea] | 94 nM
C[C@H]1COCCN1c1cc(CNC2CC2)nc(-c2ccc(NC(=O)NC3CC3)cc2)n1 [Example 49, 3-Cyclopropyl-1-[4-[4-[(cyclopropylamino)methyl]-6-[(3S)-3-methylmorpholin-4-yl]pyrimidin-2-yl]phenyl]urea] | 33 nM
C[C@H]1COCCN1c1cc(CS(=O)(=O)CC(N)=O)nc(-c2ccc(NC(=O)N(C)C)cc2)n1 [Example 17, 2-[[2-[4-(Dimethylcarbamoylamino)phenyl]-6-[(3S)-3-methylmorpholin-4-yl]pyrimidin-4-yl]methylsulfonyl]acetamide] | 1100 nM
CS(=O)(=O)Cc1cc(N2CCOCC2)nc(-c2ccc(NC(=O)N3CCNC(=O)C3)cc2)n1 [Example 45v, [4-[4-(methylsulfonylmethyl)-6-morpholin-4-yl-pyrimidin-2-yl]phenyl]-3-oxo-piperazine-1-carboxamide] | 1200 nM
CCNC(=O)Nc1ccc(-c2nc(N3CCOCC3)cc(C(C)(C)S(C)(=O)=O)n2)cc1 [Example 21a, 1-ethyl-3-[4-[4-(2-methylsulfonylpropan-2-yl)-6-morpholin-4-yl-pyrimidin-2-yl]phenyl]urea] | 730 nM
CNC(=O)Nc1ccc(-c2nc(CS(=O)(=O)c3ccccc3Cl)cc(N3CCOC[C@@H]3C)n2)cc1 [Example 33a, 1-[4-[4-[(2-chlorophenyl)sulfonylmethyl]-6-[(3S)-3-methylmorpholin-4-yl]pyrimidin-2-yl]phenyl]-3-methyl-urea] | 60 nM
COCCNC(=O)Nc1ccc(-c2nc(CS(=O)(=O)c3ccccc3)cc(N3CCOC[C@@H]3C)n2)cc1 [Example 20j, 1-[4-[4-(benzenesulfonylmethyl)-6-[(3S)-3-methylmorpholin-4-yl]pyrimidin-2-yl]phenyl]-3-(2-methoxyethyl)urea] | 750 nM

Continued, values first:

IC50 | Compound
340 nM | C[C@H]1COCCN1c1cc(CS(C)(=O)=O)nc(-c2ccc(NC(=O)NC3CC3)nc2)n1 [Example 24r, 3-cyclopropyl-1-[5-[4-[(3S)-3-methylmorpholin-4-yl]-6-(methylsulfonylmethyl)pyrimidin-2-yl]pyridin-2-yl]urea]
1100 nM | CCN(C)C(=O)Nc1ccc(-c2nc(CS(C)(=O)=O)cc(N3CCOCC3)n2)cc1 [Example 45l, 1-ethyl-1-methyl-3-[4-[4-(methylsulfonylmethyl)-6-morpholin-4-yl-pyrimidin-2-yl]phenyl]urea]
470 nM | CC(C)(C)NC(=O)Nc1ccc(-c2nc(CS(C)(=O)=O)cc(N3CCOCC3)n2)cc1 [Example 8a, 1-[4-[4-(methylsulfonylmethyl)-6-morpholin-4-yl-pyrimidin-2-yl]phenyl]-3-tert-butyl-urea]
330 nM | C[C@H]1COCCN1c1cc(CS(C)(=O)=O)nc(-c2ccc(NC(=O)NCc3cccc(N(C)C)c3)cc2)n1 [Example 24i, 3-[(3-dimethylaminophenyl)methyl]-1-[4-[4-[(3S)-3-methylmorpholin-4-yl]-6-(methylsulfonylmethyl)pyrimidin-2-yl]phenyl]urea]
1000 nM | CN(C)CCNC(=O)Nc1ccc(-c2nc(CS(=O)(=O)c3ccccc3)cc(N3CCOCC3)n2)cc1 [Example 20c, 3-[4-[4-(benzenesulfonylmethyl)-6-morpholin-4-yl-pyrimidin-2-yl]phenyl]-1-(2-dimethylaminoethyl)urea]
140 nM | CC(=O)NCCS(=O)(=O)Cc1cc(N2CCOC[C@@H]2C)nc(-c2ccc(NC(=O)Nc3ccccc3)cc2)n1 [Example 11, N-[2-[[6-[(3S)-3-methylmorpholin-4-yl]-2-[4-(phenylcarbamoylamino)phenyl]pyrimidin-4-yl]methylsulfonyl]ethyl]acetamide]
810 nM | C[C@H]1COCCN1c1cc(CS(C)(=O)=O)nc(-c2ccc(NC(=O)NCc3ccncc3)cc2)n1 [Example 24e, 1-[4-[4-[(3S)-3-methylmorpholin-4-yl]-6-(methylsulfonylmethyl)pyrimidin-2-yl]phenyl]-3-(pyridin-4-ylmethyl)urea]
630 nM | CS(=O)(=O)Cc1cc(N2CCOCC2)nc(-c2ccc(NC(=O)N3CCC(S(C)(=O)=O)C3)cc2)n1 (stereo not drawn) [Example 45n, 3-methylsulfonyl-N-[4-[4-(methylsulfonylmethyl)-6-morpholin-4-yl-pyrimidin-2-yl]phenyl]pyrrolidine-1-carboxamide]
17 nM | CNC(=O)Nc1ccc(-c2nc(N3CCOC[C@@H]3C)cc(C(C)(C)S(C)(=O)=O)n2)cc1 [Example 21f, 3-methyl-1-[4-[4-[(3S)-3-methylmorpholin-4-yl]-6-(2-methylsulfonylpropan-2-yl)pyrimidin-2-yl]phenyl]urea]
560 nM | CN(C)CCCCNC(=O)Nc1ccc(-c2nc(CS(C)(=O)=O)cc(N3CCOCC3)n2)cc1 [Example 45d, 1-(4-dimethylaminobutyl)-3-[4-[4-(methylsulfonylmethyl)-6-morpholin-4-yl-pyrimidin-2-yl]phenyl]urea]
3600 nM | C[C@H]1COCCN1c1cc(CS(C)(=O)=O)nc(-c2ccc(NC(=O)N(C)CCN(C)C)cc2)n1 [Example 35j, 1-(2-dimethylaminoethyl)-1-methyl-3-[4-[4-[(3S)-3-methylmorpholin-4-yl]-6-(methylsulfonylmethyl)pyrimidin-2-yl]phenyl]urea]
43 nM | CNC(=O)Nc1ccc(-c2nc(CS(=O)(=O)c3ccccc3)cc(N3CCOCC3)n2)cc1 [Example 20, 3-[4-[4-(Benzenesulfonylmethyl)-6-morpholin-4-yl-pyrimidin-2-yl]phenyl]-1-methyl-urea]
